# Reference: BindingDB's records for doi:10.1021/jm701311r (Georgia Institute of Technology, 2008)
# What was measured:
# Experiment in all cases: AE Enzyme Inhibition Assay
# [1] = biological target: T1, Clan CD, family C13, asparaginyl endopeptidase-like cysteine peptidase (Trichomonas vaginalis (strain ATCC PRA-98 / G3), UniProt A2DYT2)
# T1 sequence (A2DYT2 whole entry): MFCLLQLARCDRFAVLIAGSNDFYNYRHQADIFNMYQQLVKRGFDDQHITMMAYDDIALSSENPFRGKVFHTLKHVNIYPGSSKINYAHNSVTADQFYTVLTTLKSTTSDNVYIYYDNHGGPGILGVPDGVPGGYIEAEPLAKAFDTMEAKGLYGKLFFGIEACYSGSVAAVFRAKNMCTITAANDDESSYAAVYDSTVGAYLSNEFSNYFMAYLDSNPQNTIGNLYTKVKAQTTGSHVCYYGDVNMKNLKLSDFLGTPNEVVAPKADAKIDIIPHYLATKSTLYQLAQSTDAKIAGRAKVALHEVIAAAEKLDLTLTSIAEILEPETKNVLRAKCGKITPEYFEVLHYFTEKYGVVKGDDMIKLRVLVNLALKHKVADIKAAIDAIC
# Method: (§1) AE activity in the induction medium was measured with the substrate Cbz-Ala-Ala-Asn-AMC. In a black 96-well microtiter plate, aza-peptidyl inhibitors were added to the reaction buffer containing the activated enzyme, and allowed to incubate at room temperature for 20 min. Then, substrate Cbz- Ala-Ala-Asn-AMC was added and the reaction allowed proceeding for 20 min. Plotting the relative fluorescence units (RFU)/min against the inhibitor concentration (uM) permitted calculation of the IC50 value.
# Legumain [2] = biological target: T2, Legumain (Ixodes ricinus, UniProt Q6PRC7); settings: 25 °C
# T2 sequence (Q6PRC7 whole entry): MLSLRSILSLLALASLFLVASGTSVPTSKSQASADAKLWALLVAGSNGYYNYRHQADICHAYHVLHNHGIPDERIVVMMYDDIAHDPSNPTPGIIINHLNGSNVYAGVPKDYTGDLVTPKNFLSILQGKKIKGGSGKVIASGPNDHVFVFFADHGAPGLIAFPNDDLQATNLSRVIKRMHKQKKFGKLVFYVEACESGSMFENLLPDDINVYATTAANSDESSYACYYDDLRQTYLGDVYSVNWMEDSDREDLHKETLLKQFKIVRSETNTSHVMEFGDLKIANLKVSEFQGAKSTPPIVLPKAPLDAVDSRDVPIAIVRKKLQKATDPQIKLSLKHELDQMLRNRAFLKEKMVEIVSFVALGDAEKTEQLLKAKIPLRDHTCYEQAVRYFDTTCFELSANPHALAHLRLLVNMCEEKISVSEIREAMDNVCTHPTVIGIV
# Method: as §1
# Legumain [3] = biological target: T3, Legumain (Schistosoma mansoni, UniProt Q9NFY9)
# T3 sequence (Q9NFY9 whole entry): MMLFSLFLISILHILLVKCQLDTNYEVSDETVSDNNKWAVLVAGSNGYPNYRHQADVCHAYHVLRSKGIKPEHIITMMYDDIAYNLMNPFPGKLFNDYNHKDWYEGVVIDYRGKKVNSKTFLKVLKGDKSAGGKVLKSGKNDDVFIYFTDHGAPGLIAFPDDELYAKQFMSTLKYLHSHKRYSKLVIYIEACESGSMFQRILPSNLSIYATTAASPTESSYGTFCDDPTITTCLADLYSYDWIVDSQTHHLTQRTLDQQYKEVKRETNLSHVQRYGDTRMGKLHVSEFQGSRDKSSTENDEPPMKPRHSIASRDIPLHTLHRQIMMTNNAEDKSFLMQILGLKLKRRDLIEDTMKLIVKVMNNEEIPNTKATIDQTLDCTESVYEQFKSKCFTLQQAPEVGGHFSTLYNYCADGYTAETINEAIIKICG
# Method: as §1
SMILES,IC50 ([1]; 25 °C) [nM],IC50 (Legumain [2]) [nM],"IC50 (Legumain [3]; pH 6.8, 22 °C) [nM]","IC50 ([1]; pH 6.8, 22 °C) [nM]",IC50 (Legumain [3]; 25 °C) [nM]
C[C@H](NC(=O)OCc1ccccc1)C(=O)N[C@@H](C)C(=O)NN(CC(N)=O)C(=O)C=CC(=O)N(Cc1ccccc1)c1ccccc1 [benzyl N-[(1S)-1-{[(2S)-1-[(2E)-N-benzyl-3-[N-(carbamoylmethyl)hydrazido]-N-phenylprop-2-enamide]-1-oxopropan-2-yl]carbamoyl}ethyl]carbamate],< 1,< 1,70,–,–
C[C@H](NC(=O)OCc1ccccc1)C(=O)N[C@@H](C)C(=O)NN(CC(N)=O)C(=O)C=CC(=O)N(C)Cc1cccc2ccccc12 [benzyl N-[(1S)-1-{[(2S)-1-[(2E)-3-[N-(carbamoylmethyl)hydrazido]-N-methyl-N-(naphthalen-1-ylmethyl)prop-2-enamide]-1-oxopropan-2-yl]carbamoyl}ethyl]carbamate],< 1,5.5,35,–,–
CCN(CC)C(=O)C=CC(=O)N(CC(N)=O)NC(=O)[C@H](C)NC(=O)[C@H](C)NC(=O)OCc1ccccc1 [benzyl N-[(1S)-1-{[(1S)-1-[N'-(carbamoylmethyl)-N'-[(2E)-3-(diethylcarbamoyl)prop-2-enoyl]hydrazinecarbonyl]ethyl]carbamoyl}ethyl]carbamate],–,2700,–,2000,–
"C[C@H](NC(=O)OCc1ccccc1)C(=O)N[C@@H](C)C(=O)NN(CC(N)=O)C(=O)C=CC(=O)N1CCCc2ccccc21 [benzyl N-[(1S)-1-{[(2S)-1-[(2E)-N-(carbamoylmethyl)-4-oxo-4-(1,2,3,4-tetrahydroquinolin-1-yl)but-2-enehydrazido]-1-oxopropan-2-yl]carbamoyl}ethyl]carbamate]",3.5,4,–,–,70
C[C@H](NC(=O)OCc1ccccc1)C(=O)N[C@@H](C)C(=O)NN(CC(N)=O)C(=O)C=CC(=O)NCCc1ccccc1 [benzyl N-[(1S)-1-{[(2S)-1-[(2E)-3-[N-(carbamoylmethyl)hydrazido]-N-(2-phenylethyl)prop-2-enamide]-1-oxopropan-2-yl]carbamoyl}ethyl]carbamate],–,350,600,10,–
C[C@H](NC(=O)OCc1ccccc1)C(=O)N[C@@H](C)C(=O)NN(CC(N)=O)C(=O)C=Cc1cccnc1 [benzyl N-[(1S)-1-{[(2S)-1-[(2E)-N-(carbamoylmethyl)-3-(pyridin-3-yl)prop-2-enehydrazido]-1-oxopropan-2-yl]carbamoyl}ethyl]carbamate],8000,15000,> 2000,–,–
C[C@H](NC(=O)OCc1ccccc1)C(=O)N[C@@H](C)C(=O)NN(CC(N)=O)C(=O)C=CC(=O)N(Cc1ccccc1)Cc1ccc2ccccc2c1 [benzyl N-[(1S)-1-{[(2S)-1-[(2E)-N-benzyl-3-[N-(carbamoylmethyl)hydrazido]-N-(naphthalen-2-ylmethyl)prop-2-enamide]-1-oxopropan-2-yl]carbamoyl}ethyl]carbamate],6,8,–,–,70
"C[C@H](NC(=O)OCc1ccccc1)C(=O)N[C@@H](C)C(=O)NN(CC(N)=O)C(=O)C=CC(=O)N(Cc1ccccc1)Cc1ccccc1 [benzyl N-[(1S)-1-{[(2S)-1-[(2E)-N,N-dibenzyl-3-[N-(carbamoylmethyl)hydrazido]prop-2-enamide]-1-oxopropan-2-yl]carbamoyl}ethyl]carbamate]",10,450,45,–,–
C[C@H](NC(=O)OCc1ccccc1)C(=O)N[C@@H](C)C(=O)NN(CC(N)=O)C(=O)C=CC(=O)OCc1ccccc1 [benzyl (2E)-3-{N'-[(2S)-2-[(2S)-2-{[(benzyloxy)carbonyl]amino}propanamido]propanoyl]-N-(carbamoylmethyl)hydrazinecarbonyl}prop-2-enoate],–,< 1,–,5,–
"C[C@H](NC(=O)OCc1ccccc1)C(=O)N[C@@H](C)C(=O)NN(CC(N)=O)C(=O)C=CC(=O)N1CCc2ccccc21 [benzyl N-[(1S)-1-{[(1S)-1-[N'-(carbamoylmethyl)-N'-[(2E)-4-(2,3-dihydro-1H-indol-1-yl)-4-oxobut-2-enoyl]hydrazinecarbonyl]ethyl]carbamoyl}ethyl]carbamate]",50,18,–,–,70
C[C@H](NC(=O)OCc1ccccc1)C(=O)N[C@@H](C)C(=O)NN(CC(N)=O)C(=O)C=CC(=O)N(C)CCc1ccccc1 [benzyl N-[(1S)-1-{[(2S)-1-[(2E)-3-[N-(carbamoylmethyl)hydrazido]-N-methyl-N-(2-phenylethyl)prop-2-enamide]-1-oxopropan-2-yl]carbamoyl}ethyl]carbamate],50,–,600,–,–
C[C@H](NC(=O)OCc1ccccc1)C(=O)N[C@@H](C)C(=O)NN(CC(N)=O)C(=O)C=CC(=O)N(C)C(Cc1ccccc1)C(=O)N(C)CCc1ccccc1 (stereo partly drawn) [benzyl N-[(1S)-1-{[(2S)-1-[(2E)-3-[N-(carbamoylmethyl)hydrazido]-N-methyl-N-{1-[methyl(2-phenylethyl)carbamoyl]-2-phenylethyl}prop-2-enamide]-1-oxopropan-2-yl]carbamoyl}ethyl]carbamate],80,300,–,–,750
C[C@H](NC(=O)OCc1ccccc1)C(=O)N[C@@H](C)C(=O)NN(CC(N)=O)C(=O)C=CC(=O)N1CCCCC1 [benzyl N-[(1S)-1-{[(2S)-1-[(2E)-N-(carbamoylmethyl)-4-oxo-4-(piperidin-1-yl)but-2-enehydrazido]-1-oxopropan-2-yl]carbamoyl}ethyl]carbamate],–,–,1000,500,–
CCCCN(CCCC)C(=O)C=CC(=O)N(CC(N)=O)NC(=O)[C@H](C)NC(=O)[C@H](C)NC(=O)OCc1ccccc1 [benzyl N-[(1S)-1-{[(1S)-1-[N'-(carbamoylmethyl)-N'-[(2E)-3-(dibutylcarbamoyl)prop-2-enoyl]hydrazinecarbonyl]ethyl]carbamoyl}ethyl]carbamate],–,100,550,1000,–
CCOC(=O)C=CC(=O)N(CC(N)=O)NC(=O)[C@H](C)NC(=O)[C@H](C)NC(=O)OCc1ccccc1 [ethyl (2E)-4-[(2S)-2-[(2S)-2-{[(benzyloxy)carbonyl]amino}propanamido]-N'-(carbamoylmethyl)propanehydrazido]-4-oxobut-2-enoate],–,4.5,–,4.5,–
C[C@H](NC(=O)OCc1ccccc1)C(=O)N[C@@H](C)C(=O)NN(CC(N)=O)C(=O)C=CC(=O)N(C)Cc1ccccc1 [benzyl N-[(1S)-1-{[(2S)-1-[(2E)-N-benzyl-3-[N-(carbamoylmethyl)hydrazido]-N-methylprop-2-enamide]-1-oxopropan-2-yl]carbamoyl}ethyl]carbamate],0.55,< 1,–,–,–
C[C@H](NC(=O)OCc1ccccc1)C(=O)N[C@@H](C)C(=O)NN(CC(N)=O)C(=O)C=Cc1ccco1 [benzyl N-[(1S)-1-{[(1S)-1-[N'-(carbamoylmethyl)-N'-[(2E)-3-(furan-2-yl)prop-2-enoyl]hydrazinecarbonyl]ethyl]carbamoyl}ethyl]carbamate],–,7500,> 2000,–,–
C[C@H](NC(=O)OCc1ccccc1)C(=O)N[C@@H](C)C(=O)NN(CC(N)=O)C(=O)C=CC(=O)c1ccccc1 [benzyl N-[(1S)-1-{[(2S)-1-[(2E)-N-(carbamoylmethyl)-4-oxo-4-phenylbut-2-enehydrazido]-1-oxopropan-2-yl]carbamoyl}ethyl]carbamate],10000,> 20000,–,–,–
"CC=CC=CC(=O)N(CC(N)=O)NC(=O)[C@H](C)NC(=O)[C@H](C)NC(=O)OCc1ccccc1 [benzyl N-[(1S)-1-{[(1S)-1-[N'-(carbamoylmethyl)-N'-(2E,4E)-hexa-2,4-dienoylhydrazinecarbonyl]ethyl]carbamoyl}ethyl]carbamate]",8000,–,–,–,–
